Reference: patent publication US11253521B2, “3-hydroxy-quinazoline-2,4-dione derivatives and their use as nuclease modulators” (Ludwig Institute for Cancer Research Ltd, priority 2015, dated 2022)

Target: recombinant full-length FEN-1 (Homo sapiens (Human), UniProt P39748)
Assay: Fluorogenic biochemical (enzymatic) assay, FEN-1
Details: 200 nM DNA flap substrate, 50 mM Tris pH 8.0, 10 mM MgCl2, 2-4 hours at 25° C. or 37° C., read-out: SMD FEN-1 IC50
Protocol: Fluorogenic biochemical assays used recombinant full-length FEN-1 or catalytic domains of Exo1, XPG or GEN1 and 200 nM of a DNA substrate (formed by annealing three oligonucleotides—quencher (5′-CACGTTGACTACCGCTCAATCCTGACGAACACATC-BHQ2), flap (5′-TAMRA-GA TGTCAAGCAGTCCTAACTTTGAGGCAGAGTCCGC) and template (5′-GC GGACTCTGCCTCAAGACGGTAGTCAACGTG-3′) (PMID: 21062821)) in 50 mM Tris pH 8.0, 10 mM MgCl2, 1 mM DTT, and 0.01% Tween-20. Inhibitors arrayed in dose response were added from DMSO stocks (using a V&P 384-pintool head) to the enzyme solution in low volume, black polystyrene 384-well plates (Corning #3677) 15 minutes prior to the addition of the DNA substrate. Reactions were allowed to proceed for 2-4 hours at 25° C. or 37° C. Fluorescence data (Excitation: 530 nm/10 nm bandwidth; Emission: 590 nm/20 nm bandwith) were measured with an Infinite M1000 plate reader (Tecan).

Chain of recombinant full-length FEN-1 (P39748 whole entry): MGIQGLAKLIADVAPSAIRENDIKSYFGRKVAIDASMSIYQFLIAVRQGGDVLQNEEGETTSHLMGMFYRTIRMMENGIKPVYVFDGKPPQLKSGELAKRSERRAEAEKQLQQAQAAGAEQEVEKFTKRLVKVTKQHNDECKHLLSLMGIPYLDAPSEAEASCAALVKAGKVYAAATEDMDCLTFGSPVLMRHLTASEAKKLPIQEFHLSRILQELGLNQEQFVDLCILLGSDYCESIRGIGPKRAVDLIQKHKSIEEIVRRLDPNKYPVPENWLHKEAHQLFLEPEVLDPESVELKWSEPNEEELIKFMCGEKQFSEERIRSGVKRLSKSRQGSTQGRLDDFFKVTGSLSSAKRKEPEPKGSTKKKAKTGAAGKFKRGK

Compound | IC50 [nM]
O=c1[nH]c2cccc(Cl)c2c(=O)n1O [Compound 11] | 20.8
O=c1[nH]c2ccccc2c(=O)n1O [Compound 12] | 241
O=c1[nH]c2ccncc2c(=O)n1O [Compound 13] | 1310
O=c1[nH]c2ncccc2c(=O)n1O [Compound 14] | 106
O=c1[nH]c2cc(-c3ccccc3)ccc2c(=O)n1O [Compound 15] | 356
O=c1[nH]c2nc(-c3ccccc3)ccc2c(=O)n1O [Compound 16] | 392
Cn1c(=O)n(O)c(=O)c2cccnc21 [Compound 17] | 3340
O=c1[nH]c2c(-c3ccccc3)cccc2c(=O)n1O [Compound 18] | 113
O=c1[nH]c2nc(S(=O)(=O)c3ccccc3)ccc2c(=O)n1O [Compound 19] | 134
O=c1c2cccnc2n(-c2ccccc2)c(=O)n1O [Compound 20] | 2830
O=c1[nH]c2c(S(=O)(=O)c3ccccc3)cccc2c(=O)n1O [Compound 21] | 23.8
O=c1[nH]c2cc(S(=O)(=O)c3ccccc3)ccc2c(=O)n1O [Compound 22] | 79.5
O=c1[nH]c2nc(Cc3ccccc3)ccc2c(=O)n1O [Compound 23] | 11
O=c1[nH]c2c(Cc3ccccc3)cccc2c(=O)n1O [Compound 24] | 53.8
O=c1[nH]c2cc(S(=O)(=O)Cc3ccccc3)cnc2c(=O)n1O [Compound 25] | 1640
O=c1[nH]c2c(-c3ccccc3)ccc(Cl)c2c(=O)n1O [Compound 26] | 37.3
O=c1[nH]c2cc(Cc3ccccc3)ccc2c(=O)n1O [Compound 27] | 97.3
O=c1[nH]c2c(Cc3ccccc3)ccc(Cl)c2c(=O)n1O [Compound 28] | 77.2
O=c1[nH]c2cc(S(=O)(=O)Cc3ccccc3)ccc2c(=O)n1O [Compound 29] | 160
O=c1[nH]c2c(S(=O)(=O)Cc3ccccc3)cccc2c(=O)n1O [Compound 30] | 129
Cc1ccc(S(=O)(=O)c2cccc3c(=O)n(O)c(=O)[nH]c23)cc1 [Compound 31] | 24.2
Cc1cccc(S(=O)(=O)c2cccc3c(=O)n(O)c(=O)[nH]c23)c1 [Compound 32] | 14.5
O=c1[nH]c2c(S(=O)(=O)c3ccc(Cl)cc3)cccc2c(=O)n1O [Compound 33] | 26.1
O=c1[nH]c2c(S(=O)(=O)c3cccc(Cl)c3)cccc2c(=O)n1O [Compound 34] | 26.4

Compound | IC50 [nM]
O=c1[nH]c2cccc(Br)c2c(=O)n1O [Compound 35] | 19.6
O=c1[nH]c2c(F)cccc2c(=O)n1O [Compound 36] | 42
O=c1[nH]c2cc(F)ccc2c(=O)n1O [Compound 37] | 171
O=c1[nH]c2ccc(F)cc2c(=O)n1O [Compound 38] | 216
O=c1[nH]c2cccc(F)c2c(=O)n1O [Compound 39] | 54.4
O=c1[nH]c2c(S(=O)(=O)c3ccccc3)cc(F)cc2c(=O)n1O [Compound 40] | 15.6
O=c1[nH]c2c(S(=O)(=O)c3cccc(C(F)(F)F)c3)cccc2c(=O)n1O [Compound 41] | 13.3
COc1cccc(S(=O)(=O)c2cccc3c(=O)n(O)c(=O)[nH]c23)c1 [Compound 42] | 16.5
O=c1[nH]c2c(S(=O)(=O)c3ccccc3)ccc(Cl)c2c(=O)n1O [Compound 43] | 9.9
Cc1cccc(S(=O)(=O)c2cc(Cl)cc3c(=O)n(O)c(=O)[nH]c23)c1 [Compound 44] | 10.9
O=c1[nH]c2c(S(=O)(=O)c3ccc(Br)cc3)cccc2c(=O)n1O [Compound 45] | 14
O=c1[nH]c2c(S(=O)(=O)c3cccc(Br)c3)cccc2c(=O)n1O [Compound 46] | 12.9
O=c1[nH]c2c(S(=O)(=O)c3cccc(O)c3)cccc2c(=O)n1O [Compound 47] | 15.7
Cc1cccc(S(=O)(=O)c2ccc(Cl)c3c(=O)n(O)c(=O)[nH]c23)c1 [Compound 48, 5-chloro-3-hydroxy-8-(m-tolylsulfonyl)quinazoline-2,4(1H,3H)-dione] | 9.3
Nc1cccc(S(=O)(=O)c2cccc3c(=O)n(O)c(=O)[nH]c23)c1 [Compound 49] | 35.4
Cc1cc(C)cc(S(=O)(=O)c2cccc3c(=O)n(O)c(=O)[nH]c23)c1 [Compound 50] | 11.6
Cc1cccc(S(=O)(=O)c2c(F)ccc3c(=O)n(O)c(=O)[nH]c23)c1 [Compound 51] | 19.2
Cc1cccc(S(=O)(=O)c2c(Cl)ccc3c(=O)n(O)c(=O)[nH]c23)c1 [Compound 52] | 139
Cc1cccc(S(=O)(=O)c2cc(F)cc3c(=O)n(O)c(=O)[nH]c23)c1 [Compound 53] | 13.7
O=c1[nH]c2c(S(=O)(=O)c3cc(Cl)cc(Cl)c3)cccc2c(=O)n1O [Compound 54] | 18.1
CC(=O)Nc1cccc(S(=O)(=O)c2cccc3c(=O)n(O)c(=O)[nH]c23)c1 [Compound 55] | 16.5
N#Cc1cccc(S(=O)(=O)c2cccc3c(=O)n(O)c(=O)[nH]c23)c1 [Compound 56] | 14.8
O=c1[nH]c2c(S(=O)(=O)c3cc(F)cc(F)c3)cccc2c(=O)n1O [Compound 57] | 12.8
COC(=O)Nc1cccc(S(=O)(=O)c2cccc3c(=O)n(O)c(=O)[nH]c23)c1 [Compound 58] | 12.8

Compound | IC50 [nM]
CNC(=O)Nc1cccc(S(=O)(=O)c2cccc3c(=O)n(O)c(=O)[nH]c23)c1 [Compound 59] | 14.1
O=c1[nH]c2c(S(=O)(=O)c3cccc(Nc4ncccn4)c3)cccc2c(=O)n1O [Compound 60] | 16
O=c1[nH]c2c(S(=O)(=O)c3cc(Br)cc(Br)c3)cccc2c(=O)n1O [Compound 61] | 16.6
O=c1[nH]c2c(S(=O)(=O)c3cccc(Nc4ccccn4)c3)cccc2c(=O)n1O [Compound 62] | 28.9
NC(=O)Nc1cccc(S(=O)(=O)c2cccc3c(=O)n(O)c(=O)[nH]c23)c1 [Compound 63] | 16.9
CN(C)c1cccc(S(=O)(=O)c2cccc3c(=O)n(O)c(=O)[nH]c23)c1 [Compound 64] | 14.9
COc1cc(OC)cc(S(=O)(=O)c2cccc3c(=O)n(O)c(=O)[nH]c23)c1 [Compound 65] | 17
O=c1[nH]c2c(S(=O)(=O)c3cc(O)cc(O)c3)cccc2c(=O)n1O [Compound 66] | 9.3
Cc1cccc(S(=O)(=O)c2ccc(F)c3c(=O)n(O)c(=O)[nH]c23)c1 [Compound 67] | 17.8
O=c1[nH]c2c(S(=O)(=O)c3ccccc3)c(F)ccc2c(=O)n1O [Compound 68] | 94.4
O=c1[nH]c2c(S(=O)(=O)c3cccc(F)c3)cccc2c(=O)n1O [Compound 69] | 10
O=c1[nH]c2c(S(=O)(=O)c3cccc(F)c3)ccc(Cl)c2c(=O)n1O [Compound 70] | 9.8
O=c1[nH]c2c(S(=O)(=O)c3cc(F)cc(F)c3)ccc(Cl)c2c(=O)n1O [Compound 71] | 6.7
O=c1[nH]c2c(S(=O)(=O)c3ccc4[nH]cnc4c3)cccc2c(=O)n1O [Compound 72] | 5.6
CC(=O)Nc1cc(NC(C)=O)cc(S(=O)(=O)c2cccc3c(=O)n(O)c(=O)[nH]c23)c1 [Compound 73] | 7.6
Nc1cc(N)cc(S(=O)(=O)c2cccc3c(=O)n(O)c(=O)[nH]c23)c1 [Compound 74] | 8.5
O=c1[nH]c2c(S(=O)(=O)c3cccs3)cccc2c(=O)n1O [Compound 75] | 11.6
Cc1cc(Cl)cc(S(=O)(=O)c2ccc(Cl)c3c(=O)n(O)c(=O)[nH]c23)c1 [Compound 76] | 9.4
Cc1cc(F)cc(S(=O)(=O)c2ccc(Cl)c3c(=O)n(O)c(=O)[nH]c23)c1 [Compound 77] | 8.5
COc1ccc(S(=O)(=O)c2ccccc2)c2[nH]c(=O)n(O)c(=O)c12 [Compound 78] | 6.6
O=c1[nH]c2c(S(=O)(=O)c3cccs3)ccc(Cl)c2c(=O)n1O [Compound 79] | 16.6
COc1ccc(S(=O)(=O)c2cccc(C)c2)c2[nH]c(=O)n(O)c(=O)c12 [Compound 80] | 9.4
CN(C)c1cc(N(C)C)cc(S(=O)(=O)c2cccc3c(=O)n(O)c(=O)[nH]c23)c1 [Compound 81] | 18.4
